These are literature values, as cited in patent US7015199B1, “Treatment of psoriasis through down-regulation of the EGF-receptor with topically-applied EGF” (priority 2000, dated 2006).

The subject of the data set is EGF-dependent cancer cell lines. The note with it: high levels of EGF, in-vitro.

Regarding “epidermal growth factor (NSDSECPLSHDGYCLHDGVCMYIEALDKYACNCVVGYIGERCQYRDLKWWELR; Epidermal growth factor; UniProt P01133 971-1023, looked up) [EGF, epidermal growth factor, ligand of the EGF receptor]”, the “growth of EGF-dependent cancer cell lines” value was “inhibited the growth”.
